Experiment [1] concerns the target T1, FLT3 intracellular domain protein (Homo sapiens, UniProt P36888).
T1 construct: 7.5 ng/ml of FLT3 intracellular domain protein (Millipore); purchased Millipore
T1 sequence (P36888 564-993 limits assumed): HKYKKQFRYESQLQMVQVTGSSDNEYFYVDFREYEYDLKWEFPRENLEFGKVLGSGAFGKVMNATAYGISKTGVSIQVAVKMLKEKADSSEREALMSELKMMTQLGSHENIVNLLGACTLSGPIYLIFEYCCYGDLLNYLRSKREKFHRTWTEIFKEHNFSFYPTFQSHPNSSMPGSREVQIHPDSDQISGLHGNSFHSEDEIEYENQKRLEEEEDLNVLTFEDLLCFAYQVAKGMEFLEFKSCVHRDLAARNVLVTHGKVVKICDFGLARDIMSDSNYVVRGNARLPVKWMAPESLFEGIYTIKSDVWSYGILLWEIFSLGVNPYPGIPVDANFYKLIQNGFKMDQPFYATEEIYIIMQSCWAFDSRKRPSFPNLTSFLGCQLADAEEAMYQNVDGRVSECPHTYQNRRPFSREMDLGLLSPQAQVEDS
Kind of experiment: Fms Like Tyrosine Kinase 3 (FLT3) kinase inhibitory activity (AlphaScreen). The experiment is classed as biochemical. On the procedure:
A test compound dissolved in dimethyl sulfoxide (DMSO) was diluted with a buffer (50 mM Tris-HCl (pH 7.5), 5 mM MgCl2, 5 mM MnCl2, 2 mM dithiothreitol, 0.01% Tween-20). To this compound solution (5 μL) was added a buffer (10 μL) containing 7.5 ng/ml of FLT3 intracellular domain protein (Millipore) and 250 ng/mL of biotin labeled polypeptide biotinyl-poly-Glu:Tyr (4:1) (CIS bio International). At 5 min after mixing kinase enzyme and the compound and biotin labeled polypeptide, to the obtained mixture was added a buffer (10 μL) containing ATP (5 μM), the mixture was allowed to react at 25° C. for 10 min and the reaction was quenched with 25 μL of a stop solution (100 mM EDTA disodium salt, 62.5 mM HEPES buffer (pH 7.4), 250 mM NaCl, 0.1% bovine serum albumin, 10 μg/mL AlphaScreen assay streptavidin donor beads (Streptavidin Donor Beads: PerkinElmer), 10 μg/mL AlphaScreen assay anti-phosphotyrosine recognition antibody Y-100 binding acceptor beads (Anti-phosphotyrosine (P-Tyr-100) Acceptor beads: PerkinElmer)). The reaction solution was allowed to stand at 25° C. for 16 hrs, and the wells were counted using a plate reader (Envision™ (PerkinElmer)). The kinase inhibitory rate (%) of the test compound was calculated by the following formula: Inhibitory rate (%)=(1−(count of test compound−blank)÷(control−blank))×100
(§1) The count of the solution reacted without addition of the compound was used as a “control”, and the count of the solution without the compound and ATP was used as a “blank”.
Background: In Alpha technology, singlet oxygen from a donor bead excites a nearby acceptor bead.

Experiment [2] relates to Human gastric cancer cell line MKN-45. Kind of experiment: Human gastric cancer cell line MKN-45 growth inhibitory test. The experiment is classed as cell-based. To be noted: MKN-45, 72 h, culture for 3 days; for inhibition at 1 µM: 1 μM test substance, read-out: inhibitory rate (%) at 1 μM; for IC50: read-out: IC50 value. On the procedure:
Human gastric cancer cell line MKN-45 (RIKEN BioResource Center) was cultured in RPMI1640 (Invitrogen) containing 10% bovine fetal serum in a gas incubator at 37° C., 5% CO2. MKN-45 cells were treated with trypsin/EDTA and recovered. The cells were suspended in RPMI1640 containing 0.3% bovine fetal serum, plated on a 96 well flat bottom plate at a cells density of 3000 cells/50 μL per well. After culturing overnight, various concentrations of test substance were dissolved in RPMI1640 containing 0.3% bovine fetal serum and added to each well by 50 μL. After culture for 3 days, a Cell counting kit-8 reagent (DOJINDO LABORATORIES) was added to each well by 10 μL, and reacted in an incubator at 37° C., 5% CO2 for 2-3 hr. After the reaction, the absorbance of each well at 450 nm was measured by a microtiter plate reader. The concentration of a test substance necessary for inhibiting the growth by 50% (IC50 value) was calculated using a cell proliferation rate with addition of the test substance at each concentration and according to the nonlinear regression analysis using GraphPad Prism [Sigmoidal dose response (variable slope)]. The cell proliferation rate (%) with addition of a test substance at each concentration was calculated by the following formula. As a positive control (100% growth), dimethyl sulfoxide was added instead of a test substance. As a negative control (0% growth), the compound of Reference Example 136 (WO2005/030140, Entry 104), which is a known c-Met inhibitor, was added in large excess (10 μM) instead of a test substance.

For experiment [3], the system named is Human umbilical vein-derived vascular endothelial cells (HUVEC). Kind of experiment: Vascular endothelial cell proliferation inhibitory test (VEGF-stimulated HUVEC). The settings on record: 120 h, 5 days of culture with VEGF. The experiment is classed as cell-based. The method, then: Human umbilical vein-derived vascular endothelial cells (HUVEC purchased from KURABO […] LTD.) were cultured in an incubator at 37° C., 5% carbon dioxide in a vascular endothelial cell medium (Invitrogen) containing 3% bovine fetal serum and 2.5 ng/mL basic fibroblast growth factor. To be specific, HUVEC was suspended in a vascular endothelial cell medium containing the aforementioned 3% bovine fetal serum and plated on a 96 well flat bottom plate by 50 μL (3000 cells) each well. After culture overnight, various concentrations of the test substance and 120 ng/mL of vascular endothelial growth factor (VEGF) were dissolved in a vascular endothelial cell medium containing 3% bovine fetal serum and added to each well by 50 μL. After 5 days of culture, a Cell counting kit-8 reagent (DOJINDO LABORATORIES) was added to each well by 10 μL, and the mixture was reacted in an incubator at 37° C., 5% carbon dioxide for 2-3 hr. The absorbance at 450 nm was measured by a microtiter plate reader and the cell proliferation inhibitory activity was determined. Using the absorbance with addition of a test substance at each concentration and based on the nonlinear least-squares analysis using a logistic curve of SAS system NLIN procedure, the concentration of the test substance (IC50 value) necessary for showing 50% of the value obtained without addition of the test substance was calculated.

The target in experiment [4] is T2, c-Met intracellular domain protein (Homo sapiens, UniProt P08581).
T2 construct: 2.5 ng/ml of c-Met intracellular domain protein (Millipore); purchased Millipore
Put plainly: Hepatocyte growth factor receptor (c-Met) kinase inhibitory activity (AlphaScreen). The experiment is classed as biochemical. The settings on record: for inhibition at 1 µM: 1 μM test compound, read-out: inhibitory rate (%) at 1 μM. The method, then: A test compound dissolved in dimethyl sulfoxide (DMSO) was diluted with a buffer (50 mM Tris-HCl (pH 7.5), 5 mM MgCl2, 5 mM MnCl2, 2 mM dithiothreitol, 0.01% Tween-20). To this compound solution (5 μL) was added a buffer (10 μL) containing 2.5 ng/ml of c-Met intracellular domain protein (Millipore) and 250 ng/mL of biotin labeled polypeptide biotinyl-poly-Glu:Tyr (4:1) (CIS bio International). […] The reaction solution was allowed to stand at 25° C. for 16 hrs, and the wells were counted using a plate reader (Fusion™ (PerkinElmer)). The kinase inhibitory rate (%) of the test compound was calculated by the following formula: Inhibitory rate (%)=(1−(count of test compound−blank)÷(control−blank))×100
as §1

Bounds are passed on as bounds.

In general, IC50 refers to the midpoint of a concentration-inhibition curve.

T2 sequence (P08581 956-1390 limits assumed): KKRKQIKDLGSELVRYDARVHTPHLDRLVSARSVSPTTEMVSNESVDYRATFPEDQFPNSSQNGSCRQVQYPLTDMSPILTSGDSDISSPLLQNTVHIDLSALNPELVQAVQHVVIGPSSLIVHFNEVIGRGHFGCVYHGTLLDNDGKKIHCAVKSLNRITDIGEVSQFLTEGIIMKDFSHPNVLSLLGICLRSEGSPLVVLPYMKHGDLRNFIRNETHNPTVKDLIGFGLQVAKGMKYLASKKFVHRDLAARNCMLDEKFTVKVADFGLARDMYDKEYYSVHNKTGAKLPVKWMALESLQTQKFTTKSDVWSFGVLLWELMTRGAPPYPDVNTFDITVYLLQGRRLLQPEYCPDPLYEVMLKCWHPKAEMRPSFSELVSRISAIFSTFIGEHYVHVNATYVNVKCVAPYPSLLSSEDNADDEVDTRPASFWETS

`Cc1cc(C(=O)Nc2ccc(Oc3ccc4nc(NC(=O)C5CC5)cn4c3)c(F)c2)c(=O)n(-c2ccc(F)cc2)c1C` [Example 70, N-[4-({2-[(cyclopropylcarbonyl)amino]imidazo[1,2-a]pyridin-6-yl}oxy)-3-fluorophenyl]-1-(4-fluorophenyl)-5,6-dimethyl-2-oxo-1,2-dihydropyridine-3-carboxamide]: the IC50 was not above 1000 nM in experiment [1], not above 1000 nM in experiment [2], not above 2000 nM in experiment [3] and not above 1000 nM in experiment [4]. In addition, the inhibition at 1 µM in experiment [2] and in experiment [4] was not below 80% in each case.

For `Cc1ccc(C(=O)Nc2ccc(Oc3ccc4nc(NC(=O)C5CC5)cn4c3)cc2)c(=O)n1-c1ccc(F)cc1` [Example 28, N-[4-({2-[(cyclopropylcarbonyl)amino]imidazo[1,2-a]pyridin-6-yl}oxy)phenyl]-1-(4-fluorophenyl)-6-methyl-2-oxo-1,2-dihydropyridine-3-carboxamide], the IC50 in experiment [1] is not above 1000 nM; in experiment [2] it was not above 1000 nM; in experiment [3], not above 2000 nM; in experiment [4], not above 1000 nM. Further, the inhibition at 1 µM was not below 50% in experiment [1] (1 μM test compound, read-out: inhibitory rate (%) at 1 μM); not below 80% in experiment [2]; not below 80% in experiment [4].

Regarding `Cc1ccc(C(=O)Nc2ccc(Oc3ccc4nc(NC(=O)C5CC5)cn4c3)c(F)c2)c(=O)n1-c1ccc(F)cc1.Cl` [Example 32, N-[4-({2-[(cyclopropylcarbonyl)amino]imidazo[1,2-a]pyridin-6-yl}oxy)-3-fluorophenyl]-1-(4-fluorophenyl)-6-methyl-2-oxo-1,2-dihydropyridine-3-carboxamide hydrochloride], the inhibition at 1 µM in experiment [2] and in experiment [4] was not below 80% in each case. For the same compound, the IC50 is not above 1000 nM in experiment [2], not above 2000 nM in experiment [3] and not above 1000 nM in experiment [4].

Consider `CC1CCN(C(=O)Nc2ccc(Oc3ccc4nc(NC(=O)C5CC5)cn4c3)c(F)c2)C(=O)N1c1ccc(F)cc1` (stereo not drawn) [Example 80, N-[4-({2-[(cyclopropylcarbonyl)amino]imidazo[1,2-a]pyridin-6-yl}oxy)-3-fluorophenyl]-3-(4-fluorophenyl)-4-methyl-2-oxotetrahydropyrimidine-1(2H)-carboxamide], for which the IC50 in experiment [1] is not above 1000 nM; in experiment [2], not above 1000 nM; in experiment [3], not above 2000 nM; in experiment [4] it was not above 1000 nM. For the same compound, the inhibition at 1 µM in experiment [2] and in experiment [4] was not below 80% each time.

As to `Cc1ccc(C(=O)Nc2ccc(Oc3ccc4nc(NC(=O)C5CC5)cn4c3)cn2)[n+]([O-])c1-c1ccc(F)cc1` [Example 61, N-[5-({2-[(cyclopropylcarbonyl)amino]imidazo[1,2-a]pyridin-6-yl}oxy)pyridin-2-yl]-6-(4-fluorophenyl)-5-methylpyridine-2-carboxamide 1-oxide], the IC50 in experiment [1] is not above 1000 nM; in experiment [2], not above 1000 nM; in experiment [3], not above 2000 nM; in experiment [4], not above 1000 nM. Further, the inhibition at 1 µM in experiment [2] and in experiment [4] was not below 80% throughout.

Consider `Cc1c(C(=O)Nc2ccc(Oc3ccc4nc(NC(=O)C5CC5)cn4c3)c(F)c2)c(=O)n(-c2ccccc2)n1C` [Example 46, N-[4-({2-[(cyclopropylcarbonyl)amino]imidazo[1,2-a]pyridin-6-yl}oxy)-3-fluorophenyl]-1,5-dimethyl-3-oxo-2-phenyl-2,3-dihydro-1H-pyrazole-4-carboxamide], for which the IC50 in experiment [1] was not above 1000 nM; in experiment [2], not above 1000 nM; in experiment [3] it was not above 2000 nM; in experiment [4], not above 1000 nM. Moreover, the inhibition at 1 µM in experiment [2] and in experiment [4] was not below 80% each time.

For the compound `Cc1ccc(C(=O)Nc2ccc(Oc3ccc4nc(NC(=O)C5CC5)cn4c3)c(F)c2)[n+]([O-])c1-c1ccc(F)cc1` [Example 29, N-[4-({2-[(cyclopropylcarbonyl)amino]imidazo[1,2-a]pyridin-6-yl}oxy)-3-fluorophenyl]-6-(4-fluorophenyl)-5-methylpyridine-2-carboxamide 1-oxide], the IC50 in experiment [1] is not above 1000 nM; in experiment [2], not above 1000 nM; in experiment [3], not above 2000 nM; in experiment [4], not above 1000 nM. Further, the inhibition at 1 µM in experiment [2] and in experiment [4] was not below 80% throughout.

Regarding `Cc1cc(C(=O)Nc2ccc(Oc3ccc4nc(NC(=O)C5CC5)cn4c3)c(F)c2)c(=O)n(-c2ccc(F)cc2)c1` [Example 66, N-[4-({2-[(cyclopropylcarbonyl)amino]imidazo[1,2-a]pyridin-6-yl}oxy)-3-fluorophenyl]-1-(4-fluorophenyl)-5-methyl-2-oxo-1,2-dihydropyridine-3-carboxamide], the IC50 in experiment [1] was not above 1000 nM; in experiment [2], not above 1000 nM; in experiment [3], not above 2000 nM; in experiment [4] it was not above 1000 nM. Further, the inhibition at 1 µM in experiment [2] and in experiment [4] was not below 80% in each case.

As for `Cc1ccc(C(=O)Nc2ccc(Oc3ccn4nc(NC(=O)C5CC5)nc4c3)c(F)c2)c(=O)n1-c1ccc(F)cc1` [Example 76, N-[4-({2-[(cyclopropylcarbonyl)amino][1,2,4]triazolo[1,5-a]pyridine-7-yl}oxy)-3-fluorophenyl]-1-(4-fluorophenyl)-6-methyl-2-oxo-1,2-dihydropyridine-3-carboxamide], the IC50 in experiment [1] was not above 1000 nM; in experiment [2] it was not above 1000 nM; in experiment [3] it was not above 2000 nM; in experiment [4], not above 1000 nM. The inhibition at 1 µM in experiment [2] and in experiment [4] was not below 80% in each case.

These data come from patent publication US8445509B2, “Fused heterocyclic derivatives and use thereof” (Takeda Pharmaceutical Company Limited, priority 2008, dated 2013).
